What was measured:
Wistar male rats = test: Acute toxicity, oral, male rats, 7-day observation; type: in vivo, rat; conditions: 1000 and 2000 mg/kg, 7 days
Method: (§1) The toxicity of the esculetin derivatives of the present invention was examined. Typical examples of the present derivatives were administered orally at a dose of 2000 mg/kg (body weight) to male mice and male rats which were then observed for seven days. No deaths and no remarkable toxicity were observed. The esculetin derivatives of the present invention are extremely safe compounds (see Example 13).
(§2) The acute toxicity of the esculetin derivatives of the present invention was examined using Crj: CD-1 (ICR) male mice (6 weeks old) and Wistar male rats (6 weeks old). After 6-(β-2-acetamido-2-deoxy-D-glucopyranosyloxy)-7-(N,N-dimethylcarbamoyloxy)coumarin [Ib-2] […] In the experiments as above, two animals were used for each group.

[1] = test system: Crj: CD-1 (ICR) male mice; test: Acute toxicity, oral, male mice, 7-day observation; type: in vivo, mouse; conditions: 1000 and 2000 mg/kg, 7 days
Method: as §1, §2

[2] = Pharmacokinetic analysis in mouse femoral head cartilage (FHC) model; type: in vivo, BALB/C female mice implanted with FHC of S. D. male rats; conditions: oral, 534 mg/kg [Ib-2] vs esculetin 187 mg/kg; values only in FIG. 2
Method: The model mice were prepared in accordance with the method described in D. A. Willoughby et al., Agents Actions, vol. 38, pp. 126 to 134, 1993.
The left and right femoral head cartilages (FHC) were sterilely excised from S. D. male rats in a clean bench. The excised FHC's were washed with a Ham F-12 culture medium containing antibiotics and the wet weight was measured. Then, the FHC's were wrapped in two cotton sheets (about 1 cm×1 cm) and cooled with ice in the culture medium for storage until implantation. The FHC's were implanted sterilely under the dorsal skin of BALB/C female mice whose dorsal regions were shaved. The incisions were stitched, and then completely sealed with surgical adhesive (Toa Gosei, Japan).
The above mouse FHC model were used to pharmacokinetically compare esculetin and the esculetin derivative [Ib-2] of the present invention. Esculetin (187 mg/kg) and an equimolar amount, i.e., 534 mg/kg, of the esculetin derivative [Ib-2] of the present invention were administered orally three days after the implantation of the FHC. The FHC's were periodically removed and digested with papain. Then, an amount of the compounds taken up in the FHC was analyzed by high performance liquid chromatography. In the above experiments, three mice were used for each group.

[3] = test system: interstitial collagenase (MMP-1); test: Inhibition of production of interstitial collagenase (MMP-1) in rabbit cartilage organ culture system, IL-1α stimulated; type: cell-based, rabbit (New Zealand White); conditions: IL-1α 100 units/ml, 48 hours; rabbit articular cartilage; values only in FIG. 1
Method: After the articular cartilages were collected from the shoulder and knee of rabbits (New Zealand White Rabbits, male, 6 weeks old) and divided into small pieces, cultivation experiment was started using Dulbecco's MEM medium containing 0.2% lactoalbumin. The compounds to be tested were dissolved in dimethylsulfoxide (DMSO) and then added to the medium. The concentration of DMSO was 0.25% by volume to the medium. After 2 hours from addition of the compounds to be tested, 100 units/ml of interleukin-1α (hereinafter referred to as the IL-1α) was added as a stimulant, and the cultivation was performed for 48 hours. Thereafter, the activity of MMP-1 in the supernatant of the culture was measured. Collageno kit (CLN-100) (Cosmo Bio Co., Ltd.) was used for the measurement of MMP-1.
The results are shown as the value of the mean value±standard error (n=4 per a group). As the esculetin derivative of the present invention, 6-(β-2-acetamido-2-deoxy-D-glucopyranosyloxy)-7-(N,N-dimethylcarbamoyloxy)coumarin [Ib-2] was used.
The abscissa is the percentage of the amounts of MMP-1 produced by adding both IL-1α and the compound to be tested as compared to the amounts of MMP-1 produced by the addition of IL-1α alone. When neither IL-1α nor the compound to be tested were added as a control test, MMP-1 was hardly produced.

CC(=O)N[C@H]1[C@H](Oc2cc3ccc(=O)oc3cc2OC(=O)N(C)C)O[C@H](CO)[C@@H](O)[C@@H]1O [Ib-2, 6-(β-2-acetamido-2-deoxy-D-glucopyranosyloxy)-7-(N,N-dimethylcarbamoyloxy)coumarin]
deaths (Wistar male rats): No deaths were observed
general state and body weight in comparison with the control group (Wistar male rats): no change was observed
deaths [1]: No deaths were observed
general state and body weight in comparison with the control group [1]: no change was observed
amount of compound taken up and retained in the FHC [2]: taken up and retained in the FHC for a long time in a higher concentration as compared to esculetin
amounts of MMP-1 released under IL-1α stimulated condition [3]: reduced the amounts of MMP-1 under IL-1α stimulated condition

From US5731293A, “Esculetin derivatives, method for manufacture thereof, and pharmaceutical composition” (Kureha Chemical Industry Co., Ltd., priority 1994, dated 1998)
